From patent publication US10857105B2, “Compounds and compositions for intracellular delivery of therapeutic agents” (ModernaTX, Inc., priority 2017, dated 2020)

Legend:
IL-6, IP-10 = assay: Cytokine induction (IL-6, IP-10) in mice 6 hours after intravenous administration; type: in vivo; parameters: unit not given here; details: intravenous 0.5 mpk
Source text: The introduction of foreign material into a mammalian body induces an innate immune response that promotes cytokine production. Such immune responses to, for example, nanoparticle compositions including therapeutic and/or prophylactics, are undesirable. The induction of certain cytokines is thus measured to evaluate the […] of nanoparticle compositions. The concentrations of various cytokines in mice upon intravenous administration of nanoparticle compositions presented in Table 1A at a dosage of 0.5 mpk was measured at 6 hours. The standard MC3 formulation and a PBS control were also tested. As is evident in Table 7, IL-6 induction was highest for compositions including Compounds 1, 3, 9, 19, and 26, while IP-10 induction was highest for compositions including Compounds 3, 4, 7, 20, and 26. IL-6 induction was lowest for compositions including Compounds 4, 11, 12, and 28. IP-10 induction was lowest for compositions including Compounds 10, 11, 12, 13, 15, 17, and 18.

modified luciferase = assay: Luciferase expression in liver, lung, spleen and femur 6 hours after intravenous administration to mice; type: in vivo; details: 6 hours after intravenous 0.5 mpk, mice
How it was run: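 Nanoparticle formulations of the modified luciferase were given intravenously to mice (n=3) at 0.5 mpk. Bioluminescence was measured after 6 hours as total light flux. Standard MC3 formulation and PBS run as controls.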

[1] = Particle size and polydispersity index of nanoparticle compositions (Zetasizer Nano ZS); type: physicochemical; details: Table 1A; lipid:DSPC:cholesterol:PEG-DMG 50:10:38.5:1.5 mol %
How it was run: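 Size and PDI measured by Zetasizer Nano ZS in 1×PBS (zeta potential in 15 mM PBS). Lipid nanoparticles contained test ionizable lipid:DSPC:cholesterol:PEG-DMG at 50:10:38.5:1.5 mol % with N1-methyl-pseudouridine mRNA encoding luciferase or hEPO.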

[2] = Encapsulation efficiency of RNA in nanoparticle compositions (RIBOGREEN assay); type: physicochemical; details: Table 1A; lipid:DSPC:cholesterol:PEG-DMG 50:10:38.5:1.5 mol %
How it was run: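 Lipid nanoparticles (ionisable lipid:DSPC:cholesterol:PEG-DMG 50:10:38.5:1.5 mol %) carrying N1-methylpseudouridine luciferase or hEPO mRNA diluted to about 5 μg/mL in TE, pH 7.5, with or without 2% Triton X-100, 15 min at 37° C. RiboGreen fluorescence (ex ~480, em ~520 nm) blank-subtracted; free RNA = intact/disrupted signal.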

luciferase (Luc) mRNA = assay: Luciferase expression (whole body bioluminescence) after intravenous administration to mice; type: in vivo; details: intravenous administration (Table 3D)
Experimental: In order to monitor how effectively various nanoparticle compositions deliver therapeutic and/or prophylactics to targeted cells, different nanparticle compositions including a particular therapeutic and/or prophylactic (for example, a modified or naturally occurring RNA such as an mRNA) are prepared and administered to rodent populations. Mice are intravenously, intramuscularly, intraarterially, or intratumorally administered a single dose including a nanoparticle composition with a formulation such as those provided in Example 3. In some instances, mice may be made to inhale doses. Dose sizes may range from 0.001 mg/kg to 10 mg/kg, where 10 mg/kg describes a dose including 10 mg of a therapeutic and/or, prophylactic in a nanoparticle composition for each 1 kg of body mass of the mouse. A control composition including PBS may also be employed.
Upon administration of nanoparticle compositions to mice, dose delivery profiles, dose responses, and toxicity of particular formulations and doses thereof can be measured by enzyme-linked immunosorbent assays (ELISA), bioluminescent imaging, or other methods. For nanoparticle compositions including mRNA, time courses of protein expression can also be evaluated. Samples collected from the rodents for evaluation may include blood, sera, and tissue (for example, muscle tissue from the site of an intramuscular injection and internal tissue); sample collection may involve sacrifice of the animals.
The efficacy of the nanoparticle compositions presented in Table 1A was evaluated with a bioluminescence study. Formulations were administered intravenously to mice (n=6) at a dosage of 0.5 mg/kg (mpk) and bioluminescence measured at 3, 6, and 24 hour time points. The standard MC3 formulation and, in some instances, a control (e.g., a PBS control) were evaluated for comparison. […] In general, flux decreased as time progressed to less than 10% of the initial flux.
The total flux (measured by area under the curve, AUC) induced by administration of a formulation including a given lipid relative to that induced by administration of a formulation including MC3 was also measured for several lipids.

| Compound | Cytokine induction, IL-6 (IL-6, IP-10) | Cytokine induction, IP-10 (IL-6, IP-10) | Total Flux, Femur (modified luciferase) | Total Flux, Liver (modified luciferase) | Total Flux, Lung (modified luciferase) | Total Flux, Spleen (modified luciferase) | Size [1] [nm] | EE [2] [%] | AUC (luciferase (Luc) mRNA) [p/s*h] |
| --- | --- | --- | --- | --- | --- | --- | --- | --- | --- |
| CCCCCCCCCCCCCCCCCCN(CCO)CCCCCCCC(=O)OC(CCCCCCCC)CCCCCCCC [Compound 1, Heptadecan-9-yl 8-((2-hydroxyethyl)(octadecyl)amino)octanoate] | 267.24 | 687.14 | 7.52E+05 | 4.02E+08 | 1.72E+06 | 4.27E+06 | 72.7 | – | – |
| CCCCCCCCCCCCCCN(CCO)CCCCCCCC(=O)OC(CCCCCCCC)CCCCCCCC [Compound 2, Heptadecan-9-yl 8-((2-hydroxyethyl)(tetradecyl)amino)octanoate] | 70.95 | 468.86 | 3.86E+06 | 4.87E+09 | 2.52E+07 | 5.77E+07 | 83.9 | 93.88 | – |
| CCCCCCCCC(CCCCCCCC)OC(=O)CCCCCCCN(CCO)CCCCCCCC [Compound 4, Heptadecan-9-yl 8-((2-hydroxyethyl)(octyl)amino)octanoate] | 13.1375 | 2253.09 | – | 5.26E+09 | 6.22E+07 | 4.09E+08 | 120.5 | 95.10 | – |
| CCCCCCCCC(CCCCCCCC)OC(=O)CCCCCCCN(CCO)CCCCCC [Compound 5, Heptadecan-9-yl 8-(hexyl(2-hydroxyethyl)amino)octanoate] | 94.07 | 487.16 | 1.22E+06 | 5.84E+07 | 1.89E+06 | 1.55E+08 | – | 77.07 | – |
| CCCCCCCCCOC(=O)CCCCCCCN(CCCCCCCC(=O)OC(CCCCCCCC)CCCCCCCC)CCOC(C)=O [Compound 9, Heptadecan-9-yl 8-((2-acetoxyethyl)(8-(nonyloxy)-8-oxooctyl)amino) octanoate] | 317.45 | 366.53 | 2.57E+04 | 4.30E+05 | 2.56E+04 | 5.51E+04 | 68.5 | 75.7 | – |
| CCCCCCCCCOC(=O)CCCCCCCN(CCCCCCCC(=O)OC(CCCCCCCC)CCCCCCCC)CC(C)O (centres unmarked) [Compound 10, Heptadecan-9-yl 8-((2-hydroxypropyl)(8-(nonyloxy)-8-oxooctyl)amino) octanoate] | 88.81 | 138.16 | 5.09E+05 | 3.22E+08 | 8.85E+05 | 8.17E+06 | 102.9 | 89.60 | – |
| CCCCCCCCCOC(=O)CCCCCCCN(CCCCCCCC(=O)OC(CCCCCCCC)CCCCCCCC)C[C@@H](C)O [Compound 11, Heptadecan-9-yl (R)-8-((2-hydroxypropyl)(8-(nonyloxy)-8-oxooctyl)amino)octanoate] | 0.14 | 44.84 | – | 8.03E+08 | 1.35E+07 | 1.04E+08 | 129.6 | 92.47 | – |
| CCCCCCCCCOC(=O)CCCCCCCN(CCCCCCCC(=O)OC(CCCCCCCC)CCCCCCCC)C[C@H](C)O [Compound 12, Heptadecan-9-yl (S)-8-((2-hydroxypropyl)(8-(nonyloxy)-8-oxooctyl)amino)octanoate] | 3.88 | 32.03 | – | 6.84E+08 | 7.45E+06 | 6.82E+07 | 116.7 | 92.44 | – |
| CCCCCCCCCOC(=O)CCCCCCCN(CCCCCCCC(=O)OC(CCCCCCCC)CCCCCCCC)CC(O)CC (centres unmarked) [Compound 13, Heptadecan-9-yl 8-((2-hydroxybutyl)(8-(nonyloxy)-8-oxooctyl)amino) octanoate] | 29.07 | 126.29 | 1.35E+05 | 2.25E+07 | 2.21E+05 | 7.09E+05 | 79.4 | 92.28 | – |
| CCCCCCCCCOC(=O)CCCCCCCN(CCCCCCCC(=O)OC(CCCCCCCC)CCCCCCCC)CCOC [Compound 15, Heptadecan-9-yl 8-((2-methoxyethyl)(8-(nonyloxy)-8-oxooctyl)amino)octanoate] | 64.65 | 184.30 | 5.93E+04 | 6.23E+06 | 6.41E+04 | 9.01E+05 | 111.1 | 92.47 | – |
| CCCCCCCCCOC(=O)CCCCCCCN(CCCCCCCC(=O)OC(CCCCCCCC)CCCCCCCC)CCCOC [Compound 16, Heptadecan-9-yl 8-((3-methoxypropyl)(8-(nonyloxy)-8-oxooctyl)amino) octanoate] | 32.01 | 206.75 | 2.55E+05 | 3.17E+07 | 4.18E+05 | 5.43E+06 | 119.0 | 91.32 | – |
| CCCCCCCCCOC(=O)CCCCCCCN(CCCCCCCC(=O)OC(CCCCCCCC)CCCCCCCC)CCOCCN(C)C [Compound 17, Heptadecan-9-yl 8-((2-(2-(dimethylamino)ethoxy)ethyl) (8-(nonyloxy)-8-oxooctyl)amino)octanoate] | 138.43 | 156.41 | 9.55E+04 | 5.52E+05 | 9.95E+04 | 5.58E+06 | 85.2 | 91.84 | – |
| CCCCCCCCC(CCCCCCCC)OC(=O)CCCCCCCN(CCO)CCCCCCCC(=O)OCC1CC1CCCCCC (centres unmarked) [Compound 28, Heptadecan-9-yl 8-((8-((2-hexylcyclopropyl)methoxy)-8-oxooctyl)(2-hydroxyethyl)amino)octanoate] | 17.47 | 283.13 | – | 1.22E+10 | 2.17E+08 | 1.80E+08 | 99.4 | – | – |
| CCCCCC/C=C\COC(=O)CCCCCCCN(CCO)CCCCCCCC(=O)OC/C=C\CCCCCC [Compound 139, Di((Z)-non-2-en-1-yl) 8,8′-((2-hydroxyethyl)azanediyl)dioctanoate] | 23.57 | 153.36 | 5.12E+04 | 8.27E+05 | 5.26E+04 | 2.10E+06 | – | 78.2 | – |
| CCCCCCCCCOC(=O)CCCCCCCN(CCCCCCCC(=O)OC(CCCCCCCC)CCCCCCCC)CCOCCO [Compound 154, Heptadecan-9-yl 8-((2-(2-hydroxyethoxy)ethyl)(8-(nonyloxy)-8-oxooctyl)amino)octanoate] | – | – | – | 3.62E+08 | 2.89E+06 | 1.30E+07 | 92.9 | 94.28 | 5.560E+010 |
